Data on 13 compounds can be found in patent US20140288044A1, “COMPOSITIONS AND THERAPEUTIC USES OF IKK-RELATED KINASE EPSILON AND TANKBINDING KINASE 1 INHIBITORS” (Alzheimer's Institute of America, Inc., priority 2011, published 2014).

Each structure is given as a SMILES string. Like-named read-outs stand apart in the source and are kept apart here. A value given as a limit tells only on which side of the number the result lay.

The subject of assay [1] is RANTES secretion by prostate cancer DU145 cells. Nature of the assay: ELISA to detect secreted RANTES, prostate cancer DU145 cells. It is filed as cell-based. Conditions: Homo sapiens, DU-145. How it is done: Prostate cancer DU145 cells were seeded at 20,000 cells/well in a 96-well tissue culture plate. The following day media was removed and replaced with complete media containing IKKε/TBK1 inhibitor (starting concentration 25 μM, 1:3 dilutions, final DMSO 0.05%). Cells were incubated for 20 hours and culture supernatant used to determine secreted RANTES levels using a commercially available ELISA kit (R & D Systems, Minneapolis, Minn.).

For assay [2], the target named is T1, IKKε (Homo sapiens, UniProt Q14164).
T1 construct: His-tag (in-house Sf9 preparation) or GST-tag (purchased Invitrogen preparation); these are alternatives, not both on one protein; host or cells: Sf9 cells
T1 sequence (Q14164 1-716): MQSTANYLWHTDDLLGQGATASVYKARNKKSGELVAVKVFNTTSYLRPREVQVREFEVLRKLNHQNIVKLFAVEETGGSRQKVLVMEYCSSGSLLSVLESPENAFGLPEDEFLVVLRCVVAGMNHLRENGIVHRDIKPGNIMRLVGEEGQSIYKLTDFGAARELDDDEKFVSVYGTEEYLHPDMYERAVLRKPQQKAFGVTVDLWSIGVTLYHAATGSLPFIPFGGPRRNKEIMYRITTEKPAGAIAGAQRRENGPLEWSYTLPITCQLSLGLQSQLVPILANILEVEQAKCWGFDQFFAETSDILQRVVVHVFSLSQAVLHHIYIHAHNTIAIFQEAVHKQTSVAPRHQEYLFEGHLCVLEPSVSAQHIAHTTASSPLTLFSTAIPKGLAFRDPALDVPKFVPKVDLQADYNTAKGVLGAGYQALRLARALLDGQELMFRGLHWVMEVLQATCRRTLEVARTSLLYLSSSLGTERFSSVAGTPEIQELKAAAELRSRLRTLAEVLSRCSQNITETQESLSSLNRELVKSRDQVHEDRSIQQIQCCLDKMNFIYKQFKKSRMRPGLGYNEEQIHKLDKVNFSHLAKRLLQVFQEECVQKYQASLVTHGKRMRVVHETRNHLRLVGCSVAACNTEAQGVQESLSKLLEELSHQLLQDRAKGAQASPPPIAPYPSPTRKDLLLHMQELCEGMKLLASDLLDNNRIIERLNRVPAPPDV
Description: In-vitro IKKε kinase assay (radiolabelled ATP, filterplate). It is filed as biochemical. In outline:
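His-tagged IKKε from Sf9 cells or GST-tagged IKKε, with myelin basic protein, casein or dephosphorylated casein as substrate and 32 μM ATP (2× Km) plus [γ^33]ATP. "Normal" assay used 0.1 μg/ml enzyme; "sensitized" used 0.015 μg/ml with dephosphorylated casein only. Stopped after 30–45 min with phosphoric acid; P-81 filter counts normalized to DMSO after background subtraction.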

Assay [3] concerns IKKε-mediated phosphorylation of IRF3. Nature of the assay: ELISA for in-situ phosphorylation of IRF3 (phospho-Ser396) in HEK293T cells cotransfected with IRF3 and IKKε. It is filed as cell-based. As to conditions: Homo sapiens, HEK-293T. In short, it runs like this: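 HEK293T cells cotransfected with IRF3 and IKKε were treated with compound for 20 h, and lysates were assayed by ELISA for phospho-Ser396 IRF3, normalized to DMSO. Viability was checked in parallel by CellTiter-Glo. For TBK1, cells cotransfected with IRF7 and TBK1 were treated overnight and probed by Western blot for phospho-Ser477/Ser479 IRF7.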

Setting [4] is: DU145 cells, 20 hours, read-out: IC50, inhibition of the secretion of RANTES.
The mark [5] stands for this setting: "sensitized" assay, read-out: IC50, inhibition of the kinase activity of IKKε.
The mark [6] stands for this setting: in-vitro IKKε kinase inhibition assays, given as 0.005 μM (5 nM), read-out: IKKε kinase inhibitory activity (IC50 value).
The mark [7] stands for this setting: 20 h, HEK293T cells, 20 hours, read-out: IC50, in-situ IKKε-mediated phosphorylation of IRF3.
[8] abbreviates: Table 3, in vitro, read-out: IKKε IC50.
Setting [9] is: 20 h, HEK293T cells, 20 hours, range given from about 1 μM to about 250 nM, read-out: IC50, in-situ IKKε-mediated phosphorylation of IRF3.
[10] abbreviates: Table 3, HEK293T cells in culture, read-out: pIRF3 ELISA IC50.
Setting [11] is: Table 3, DU145 cells in culture, read-out: RANTES Secretion IC50.

As for `N#Cc1cc(-c2ccnc(Nc3cnc(N4CCOCC4)nc3)n2)ccc1OC1CCOCC1` [Example Compound 2, 5-(2-{[2-(Morpholin-4-yl)pyrimidin-5-yl]amino}pyrimidin-4-yl)-2-(tetrahydro-2H-pyran-4-yloxy)benzonitrile], in assay [1] (setting [4]), the IC50 was 60 to 125 nM.

With `N#Cc1cc(-c2ccnc(Nc3cccnc3)n2)ccc1OC1CCOCC1` [Example Compound 11, 5-[2-(Pyridin-3-ylamino)pyrimidin-4-yl]-2-(tetrahydro-2H-pyran-4-yloxy)benzonitrile], the half-inhibitory concentration (IC50) in assay [2] (setting [5]) is below 5 nM; in assay [2] (setting [6]) it was below 5 nM; in assay [1] (setting [4]), 60 to 125 nM.

Regarding `COCCOC1CN(C(=O)c2ccc(Nc3nccc(-c4ccc(OC5CCOCC5)c(C#N)c4)n3)cn2)C1` [Example Compound 28, 5-{2-[(6-{[3-(2-Methoxyethoxy)azetidin-1-yl]carbonyl}pyridin-3-yl)amino]pyrimidin-4-yl}-2-(tetrahydro-2H-pyran-4-yloxy)benzonitrile], the concentration for half-maximal inhibition (IC50) lay in the range of 1000 to 5000 nM in assay [3] (setting [7]) and 60 to 125 nM in assay [1] (setting [4]).

Turning to `N#Cc1cc(-c2ccnc(Nc3ccc(CN4CCC4)nc3)n2)ccc1OC1CCOCC1` [Example Compound 47, 5-(2-{[6-(Azetidin-1-ylmethyl)pyridin-3-yl]amino}pyrimidin-4-yl)-2-(tetrahydro-2H-pyran-4-yloxy)benzonitrile], the concentration for half-maximal inhibition (IC50) in assay [2] (setting [8]) was 6.37 nM; in assay [3] (setting [9]), 250 to 1000 nM; in assay [3] (setting [10]), 265 nM; in assay [1] (setting [4]), 20 to 60 nM; in assay [1] (setting [11]), 39.5 nM.

As to `COC1CN(Cc2ccc(Nc3nccc(-c4ccc(OC5CCOCC5)c(C#N)c4)n3)cn2)C1` [Example Compound 48, 5-[2-({6-[(3-Methoxyazetidin-1-yl)methyl]pyridin-3-yl}amino)pyrimidin-4-yl]-2-(tetrahydro-2H-pyran-4-yloxy)benzonitrile], the IC50 was below 5 nM in assay [2] (setting [5]); 2.74 nM in assay [2] (setting [8]); below 5 nM in assay [2] (setting [6]); 250 to 1000 nM in assay [3] (setting [9]); 315 nM in assay [3] (setting [10]); 20 to 60 nM in assay [1] (setting [4]). For the same compound, the IC50 in assay [1] (setting [11]) was found to be 52.2 nM.

As to `COCCOC1CN(Cc2ccc(Nc3nccc(-c4ccc(OC5CCOCC5)c(C#N)c4)n3)cn2)C1` [Example Compound 49, 5-{2-[(6-{[3-(2-Methoxyethoxy)azetidin-1-yl]methyl}pyridin-3-yl)amino]pyrimidin-4-yl}-2-(tetrahydro-2H-pyran-4-yloxy)benzonitrile], the 50% inhibitory concentration (IC50) in assay [2] (setting [8]) is 6.11 nM; in assay [3] (setting [9]) it was 250 to 1000 nM; in assay [3] (setting [10]), 363 nM; in assay [1] (setting [4]) it was 20 to 60 nM; in assay [1] (setting [11]), 55.8 nM.

With `CN(CCO)c1ccc(Nc2nccc(-c3ccc(OCC4CC4)c(C#N)c3)n2)cn1` [Example Compound 111, 2-(Cyclopropylmethoxy)-5-[2-({6-[(2-hydroxyethyl)(methyl)amino]pyridin-3-yl}amino)pyrimidin-4-yl]benzonitrile], the half-maximal inhibitory concentration (IC50) in assay [2] (setting [5]) is below 5 nM; in assay [2] (setting [6]), below 5 nM; in assay [1] (setting [4]), 20 to 60 nM.

On to `N#Cc1cc(-c2ccnc(Nc3ccc(N4CCOCC4)nc3)n2)ccc1NC(=O)C1CC1` [Example Compound 141, N-[2-Cyano-4-(2-{[6-(morpholin-4-yl)pyridin-3-yl]amino}pyrimidin-4-yl)phenyl]cyclopropanecarboxamide], for which the IC50 in assay [2] (setting [5]) was below 5 nM; in assay [2] (setting [8]), 1.91 nM; in assay [2] (setting [6]) it was below 5 nM; in assay [3] (setting [7]) it was below 100 nM; in assay [3] (setting [10]), 32.6 nM; in assay [1] (setting [4]) it was 20 to 60 nM. The IC50 in assay [1] (setting [11]) amounted to 21 nM.

Take `COC1CN(Cc2ccc(Nc3nccc(-c4ccc(NC(=O)C5CC5)c(C#N)c4)n3)cn2)C1` [Example Compound 146, N-{2-Cyano-4-[2-({6-[(3-methoxyazetidin-1-yl)methyl]pyridin-3-yl}amino)pyrimidin-4-yl]phenyl}cyclopropanecarboxamide]: the IC50 in assay [1] (setting [4]) lay in the range of 60 to 125 nM.

Turning to `COC1CN(c2cc(Nc3nccc(-c4ccc(OC5CCN(C(=O)CO)CC5)c(C#N)c4)n3)ccn2)C1` [Example Compound 249, 2-{[1-(Hydroxyacetyl)piperidin-4-yl]oxy}-5-(2-{[2-(3-methoxyazetidin-1-yl)pyridin-4-yl]amino}pyrimidin-4-yl)benzonitrile], the IC50 in assay [2] (setting [5]) was below 5 nM; in assay [3] (setting [7]), below 100 nM.

For the compound `CC(c1ncc(Nc2nccc(-c3ccc(OC4CCOCC4)c(C#N)c3)n2)cc1F)N1CC(N(C)C)C1` (stereo not drawn) [Example Compound 250, 5-{2-[(6-{1-[3-(Dimethylamino)azetidin-1-yl]ethyl}-5-fluoropyridin-3-yl)amino]pyrimidin-4-yl}-2-(tetrahydro-2H-pyran-4-yloxy)benzonitrile], the IC50 is below 5 nM in assay [2] (setting [5]) and 100 to 250 nM in assay [3] (setting [7]).

Consider `CC(c1ncc(Nc2nccc(-c3ccc(OC4CCOCC4)c(C#N)c3)n2)cc1F)N1CCOCC1` (stereo not drawn) [Example Compound 251], for which the IC50 in assay [2] (setting [5]) is below 5 nM; in assay [3] (setting [7]), 100 to 250 nM.

On to `CC(c1ccc(Nc2nccc(-c3ccc(OC4CCOCC4)c(C#N)c3)n2)cn1)N1CCOCC1` (stereo not drawn) [Example Compound 252, 5-[2-({6-[1-(Morpholin-4-yl)ethyl]pyridin-3-yl}amino)pyrimidin-4-yl]-2-(tetrahydro-2H-pyran-4-yloxy)benzonitrile], for which the IC50 in assay [2] (setting [5]) was below 5 nM; in assay [3] (setting [7]), below 100 nM.
